experiment: Human intestinal absorption in po dosed human; settings: in vivo

SMILES	Fa [%]
CC(CCc1ccccc1)NCC(O)c1ccc(O)c(C(N)=O)c1 (stereo unspecified) [LABETALOL]	95
OC[C@H]1O[C@@H](O[C@@H]2[C@@H](CO)O[C@](O)(CO)[C@H]2O)[C@H](O)[C@@H](O)[C@H]1O [LACTULOSE]	1
Nc1ccn([C@@H]2CS[C@H](CO)O2)c(=O)n1 [LAMIVUDINE]	85
Nc1nnc(-c2cccc(Cl)c2Cl)c(N)n1 [LAMOTRIGINE]	98
Cc1c(OCC(F)(F)F)ccnc1C[S+]([O-])c1nc2ccccc2[nH]1 (stereo unspecified) [LANSOPRAZOLE]	85
N[C@@H](Cc1ccc(O)c(O)c1)C(=O)O [LEVODOPA]	86
C#C[C@]1(O)CC[C@H]2[C@@H]3CCC4=CC(=O)CC[C@@H]4[C@H]3CC[C@@]21CC [LEVONORGESTREL]	100
CCC[C@@H]1C[C@@H](C(=O)N[C@@H]([C@H]2O[C@H](SC)[C@H](O)[C@@H](O)[C@H]2O)[C@@H](C)O)N(C)C1 [LINCOMYCIN]	28
NCCCC[C@H](N[C@@H](CCc1ccccc1)C(=O)O)C(=O)N1CCC[C@H]1C(=O)O [LISINOPRIL ANHYDROUS]	28
N[C@@H](C(=O)N[C@@H]1C(=O)N2C(C(=O)O)=C(Cl)CC[C@H]12)c1ccccc1 [LORACARBEF ANHYDROUS]	100
CN1C(=O)C(O)N=C(c2ccccc2Cl)c2cc(Cl)ccc21 (stereo unspecified) [LORMETAZEPAM]	100
CN1C(C(=O)Nc2ccccn2)=C(O)c2sc(Cl)cc2S1(=O)=O [LORNOXICAM]	100
OC[C@@H](O)[C@@H](O)[C@H](O)[C@H](O)CO [MANNITOL]	16
Cc1cnc(NC(=O)C2=C(O)c3ccccc3S(=O)(=O)N2C)s1 [MELOXICAM]	90
O=S(=O)([O-])CCS.[Na+] [MESNA]	77
CC(C)NCC(O)c1cc(O)cc(O)c1 (stereo unspecified) [METAPROTERENOL]	44
CN(C)C(=N)N=C(N)N [METFORMIN]	53
CCC(=O)C(CC(C)N(C)C)(c1ccccc1)c1ccccc1 (stereo unspecified) [METHADONE]	80

SMILES	Fa [%]
CN(Cc1cnc2nc(N)nc(N)c2n1)c1ccc(C(=O)N[C@@H](CCC(=O)O)C(=O)O)cc1 [METHOTREXATE]	70
C[C@](N)(Cc1ccc(O)c(O)c1)C(=O)O [METHYLDOPA]	41
C[C@H]1C[C@@H]2[C@H]([C@@H](O)C[C@@]3(C)[C@H]2CC[C@]3(O)C(=O)CO)[C@@]2(C)C=CC(=O)C=C12 [METHYLPREDNISOLONE]	82
Cc1cccc(C)c1OCC(C)N (stereo unspecified) [MEXILETINE]	100
COCC(=O)O[C@]1(CCN(C)CCCc2nc3ccccc3[nH]2)CCc2cc(F)ccc2[C@@H]1C(C)C [MIBEFRADIL]	69
COP(=O)(OC)OC(c1ccc(Cl)cc1)P(=O)(OC)OC (stereo unspecified) [MIFOBATE]	81
Nc1cc(N2CCCCC2)nc(N)[n+]1[O-] [MINOXIDIL]	98
COc1nc(C)nc(Cl)c1N=C1NCCN1 [MOXONIDINE]	87
CC(C)(C)NCC(O)COc1cccc2c1CC(O)C(O)C2 (stereo unspecified) [NADOLOL]	57
CCc1nn(CCCN2CCN(c3cccc(Cl)c3)CC2)c(=O)n1CCOc1ccccc1 [NEFAZODONE]	100
CC#Cc1cn([C@@H]2O[C@H](CO)[C@@H](O)[C@@H]2O)c(=O)[nH]c1=O [NETIVUDINE]	28
O=C(O)c1cccnc1 [NIACIN]	88
COC(=O)C1=C(C)NC(C)=C(C(=O)OCC(C)C)C1c1ccccc1[N+](=O)[O-] (stereo unspecified) [NISOLDIPINE]	89
CCOC(=O)C1=C(C)NC(C)=C(C(=O)OC)C1c1cccc([N+](=O)[O-])c1 (stereo unspecified) [NITRENDIPINE]	88
CNC(=C[N+](=O)[O-])NCCSCc1csc(CN(C)C)n1 [NIZATIDINE]	90
CC1COc2c(N3CCN(C)CC3)c(F)cc3c(=O)c(C(=O)O)cn1c23 (stereo unspecified) [OFLOXACIN]	100
O=C(O)c1cc(/N=N/c2ccc(O)c(C(=O)O)c2)ccc1O [OLSALAZINE]	24
Cc1nccn1CC1CCc2c(c3ccccc3n2C)C1=O (stereo unspecified) [ONDANSETRON]	100

From ChEMBL document CHEMBL1157012, “Neural computational prediction of oral drug absorption based on CODES 2D descriptors” (Eur J Med Chem, 2010)
